This passage reports EC50, IC50 and AC50 results from ChEMBL document CHEMBL1201862, “PubChem BioAssay data set” (2004).

Activity calls are given as the source filed them.

Assay [1] concerns Streptococcus sp. 'group A'. Kind of assay: Streptococcus pyogenes SK(-)GAS viability under kanamycin – luminescence, BacTiterGlo, confirmation, counter-screen for streptokinase expression inhibitor project, dose response (AID 1900). It is filed as functional, organism-based. On the technique in general: A counterscreen serves to expose hits that act by an unwanted route or on another target.

Assay [2] is described as follows: cells. It is filed as functional, cell-based.
A short description of assay [3]: Trypanosoma cruzi growth suppression in host cells – NIH3T3 host cells, beta-gal luminescence, confirmation (AID 2044).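 Note: intracellular parasites grown in NIH/3T3 mouse fibroblasts as host cells; luminescent beta-galactosidase reporter signal from transgenic T. cruzi replicating inside host cells; inhibitors lower the luminescence signal.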 It is filed as functional, cell-based.
The nature of assay [4]: cells. It is filed as functional, cell-based. The source holds these as a separate data set.
Assay [5] can be described thus: NIH3T3 cell viability loss – ATP luminescence, mouse fibroblasts, counter-screen, dose response (AID 2010).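 Note: cells exposed to compound for about 90 hours before reading.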 It is filed as functional, cell-based.
The subject of assay [6] is Streptococcus. Kind of assay: GAS UMAA2166 growth inhibition – luminescence, BacTiterGlo, counter-screen for streptokinase expression inhibitor project, dose response (AID 1915).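 Note: potency for reduction of bacterial viability or growth.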 It is filed as functional, organism-based.
For assay [7], the target named is T1, Exodeoxyribonuclease V (Escherichia coli (strain K12), UniProt P04993+P07648+P08394).
T1 sequence (P04993 whole entry): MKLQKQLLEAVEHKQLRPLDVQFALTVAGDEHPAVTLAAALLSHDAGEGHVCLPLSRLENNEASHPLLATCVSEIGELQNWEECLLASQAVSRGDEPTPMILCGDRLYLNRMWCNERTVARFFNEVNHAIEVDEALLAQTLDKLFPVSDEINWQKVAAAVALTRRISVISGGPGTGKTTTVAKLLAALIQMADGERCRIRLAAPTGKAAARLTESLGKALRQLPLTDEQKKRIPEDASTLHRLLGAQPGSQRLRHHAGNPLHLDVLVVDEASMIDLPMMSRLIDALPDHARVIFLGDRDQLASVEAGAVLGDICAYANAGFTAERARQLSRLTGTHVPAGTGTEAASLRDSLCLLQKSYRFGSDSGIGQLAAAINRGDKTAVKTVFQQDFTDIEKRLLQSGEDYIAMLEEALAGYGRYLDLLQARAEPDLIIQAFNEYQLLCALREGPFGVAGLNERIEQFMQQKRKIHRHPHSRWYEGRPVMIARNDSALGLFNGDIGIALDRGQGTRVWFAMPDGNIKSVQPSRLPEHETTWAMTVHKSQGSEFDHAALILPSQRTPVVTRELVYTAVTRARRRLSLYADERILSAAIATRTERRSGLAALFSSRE
T1 sequence (P07648 whole entry): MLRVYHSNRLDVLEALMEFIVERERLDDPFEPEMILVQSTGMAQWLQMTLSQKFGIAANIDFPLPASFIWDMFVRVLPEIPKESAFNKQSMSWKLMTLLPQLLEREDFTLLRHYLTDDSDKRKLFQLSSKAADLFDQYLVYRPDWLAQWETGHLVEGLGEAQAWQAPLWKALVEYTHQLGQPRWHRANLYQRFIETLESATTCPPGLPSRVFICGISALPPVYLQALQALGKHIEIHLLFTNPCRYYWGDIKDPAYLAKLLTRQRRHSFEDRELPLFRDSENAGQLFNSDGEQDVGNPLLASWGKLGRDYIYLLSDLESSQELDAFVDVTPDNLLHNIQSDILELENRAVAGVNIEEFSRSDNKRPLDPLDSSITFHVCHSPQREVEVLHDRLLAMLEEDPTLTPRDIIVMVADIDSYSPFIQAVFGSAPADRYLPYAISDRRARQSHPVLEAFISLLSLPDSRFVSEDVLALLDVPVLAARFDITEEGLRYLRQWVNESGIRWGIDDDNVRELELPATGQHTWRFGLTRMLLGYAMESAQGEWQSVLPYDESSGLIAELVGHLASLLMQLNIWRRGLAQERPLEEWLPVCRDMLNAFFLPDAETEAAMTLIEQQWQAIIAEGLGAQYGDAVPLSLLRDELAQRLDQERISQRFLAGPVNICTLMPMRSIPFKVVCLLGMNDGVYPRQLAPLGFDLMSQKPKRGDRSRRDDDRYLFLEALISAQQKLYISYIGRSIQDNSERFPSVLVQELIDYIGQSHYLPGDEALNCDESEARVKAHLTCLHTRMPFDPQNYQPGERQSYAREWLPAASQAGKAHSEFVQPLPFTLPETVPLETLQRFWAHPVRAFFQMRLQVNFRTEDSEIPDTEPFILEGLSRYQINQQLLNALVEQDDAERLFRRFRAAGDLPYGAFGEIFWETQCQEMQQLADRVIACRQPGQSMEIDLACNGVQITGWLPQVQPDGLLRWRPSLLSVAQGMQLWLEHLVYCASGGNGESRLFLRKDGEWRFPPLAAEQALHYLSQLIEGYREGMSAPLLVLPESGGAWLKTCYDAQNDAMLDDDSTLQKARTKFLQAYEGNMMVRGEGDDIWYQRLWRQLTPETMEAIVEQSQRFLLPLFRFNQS
T1 sequence (P08394 whole entry): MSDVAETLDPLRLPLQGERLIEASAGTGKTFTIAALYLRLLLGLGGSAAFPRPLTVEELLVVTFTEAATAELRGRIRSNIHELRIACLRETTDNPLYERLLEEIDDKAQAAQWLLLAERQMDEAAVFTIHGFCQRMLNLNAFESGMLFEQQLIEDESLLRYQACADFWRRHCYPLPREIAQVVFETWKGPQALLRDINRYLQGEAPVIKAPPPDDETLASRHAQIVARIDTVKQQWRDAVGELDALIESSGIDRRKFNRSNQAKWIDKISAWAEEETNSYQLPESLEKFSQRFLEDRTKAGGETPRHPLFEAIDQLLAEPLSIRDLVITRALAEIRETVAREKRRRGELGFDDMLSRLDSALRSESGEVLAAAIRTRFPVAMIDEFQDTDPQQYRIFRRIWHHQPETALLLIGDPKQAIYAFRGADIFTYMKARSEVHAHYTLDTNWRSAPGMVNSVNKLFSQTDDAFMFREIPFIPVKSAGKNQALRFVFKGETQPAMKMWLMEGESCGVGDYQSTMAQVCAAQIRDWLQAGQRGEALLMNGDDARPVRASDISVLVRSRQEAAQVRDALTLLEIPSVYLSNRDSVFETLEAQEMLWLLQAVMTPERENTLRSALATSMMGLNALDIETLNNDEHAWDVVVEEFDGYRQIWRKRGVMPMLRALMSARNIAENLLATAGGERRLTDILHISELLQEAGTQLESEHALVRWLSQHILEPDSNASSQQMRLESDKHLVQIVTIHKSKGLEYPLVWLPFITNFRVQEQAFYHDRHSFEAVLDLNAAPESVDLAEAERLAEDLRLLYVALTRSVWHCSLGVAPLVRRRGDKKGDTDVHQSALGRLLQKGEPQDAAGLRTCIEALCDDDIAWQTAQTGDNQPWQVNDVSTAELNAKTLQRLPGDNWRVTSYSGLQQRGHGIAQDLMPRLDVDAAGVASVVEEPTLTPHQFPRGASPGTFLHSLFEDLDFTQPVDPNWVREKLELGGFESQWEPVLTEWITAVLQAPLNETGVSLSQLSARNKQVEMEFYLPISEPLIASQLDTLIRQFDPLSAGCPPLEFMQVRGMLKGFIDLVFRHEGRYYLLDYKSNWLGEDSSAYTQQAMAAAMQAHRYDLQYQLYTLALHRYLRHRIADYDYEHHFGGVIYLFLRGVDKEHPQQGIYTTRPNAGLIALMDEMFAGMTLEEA
Kind of assay: RecBCD inhibition via phage-restricted bacterial growth – absorbance, V66 E. coli, mutant T4 phage, counter-screen for AddAB inhibitor project, dose response (AID 492957). It is filed as functional, cell-based, Escherichia coli str. K-12 substr. MG1655.

Assay [8] in a line: Luminescence Cell-Based Dose Retest to Confirm Inhibitors of Cancer Stem Cells. [Related pubchem assays (depositor defined):AID2717, AID2721]. It is filed as functional. The note with it: Homo sapiens.
Assay [9] is described as follows: Counterscreen for AddAB inhibitors: absorbance-based bacterial cell-based high throughput dose response assay for inhibitors of bacterial viability. [Related pubchem assays (depositor defined):AID435030, AID449728, AID449731, AID488942, AID488955, AID488956]. It is filed as functional.
For assay [10], the target named is Heat shock protein HSP 90-alpha (Homo sapiens, UniProt P07900). It is filed as functional, organism-based.
For assay [11], the system named is INS1. Kind of assay: INS-1E survival protection against cytokine death – cell-based, luminescence, retest, dose response (AID 449756).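 Note: cell death triggered by IL-1 beta plus TNF-alpha plus IFN-gamma mixture; protective hits raise ATP signal compared with cytokine alone wells.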 It is filed as functional. The note with it: Rattus norvegicus.
Assay [12] concerns HEK293. Put plainly: inhibition of NOD1-driven NF-kB reporter – cell-based, luminescence, uHTS, primary screen (AID 1578). The note with it: Homo sapiens. It is filed as functional.
Assay [13] has as its system HEK293. Kind of assay: cells. It is filed as functional, cell-based. The note with it: Homo sapiens.
In assay [14] the test system is HEK293. Put plainly: cells. It is filed as functional, cell-based. The note with it: Homo sapiens. The source holds these as a separate data set.
Assay [15] has as its target Nucleotide-binding oligomerization domain-containing protein 2 (Homo sapiens, UniProt Q9HC29). Kind of assay: inhibition of NOD2-driven NF-kB reporter – cell-based, luminescence, uHTS, HEK293 (AID 1566). It is filed as functional.
For assay [16], the system named is HEK293. Kind of assay: NOD2 signaling inhibitors in MDP-stimulated cells, cell-based, uHTS, luminescence (AID 2001). It is filed as functional. The note with it: Homo sapiens.
In assay [17] the test system is HEK293. Kind of assay: cells. It is filed as functional, cell-based. The note with it: Homo sapiens. The source holds these as a separate data set.
Assay [18] has as its target T2, Short transient receptor potential channel 4 (Mus musculus, UniProt Q9QUQ5).
T2 sequence (Q9QUQ5 whole entry): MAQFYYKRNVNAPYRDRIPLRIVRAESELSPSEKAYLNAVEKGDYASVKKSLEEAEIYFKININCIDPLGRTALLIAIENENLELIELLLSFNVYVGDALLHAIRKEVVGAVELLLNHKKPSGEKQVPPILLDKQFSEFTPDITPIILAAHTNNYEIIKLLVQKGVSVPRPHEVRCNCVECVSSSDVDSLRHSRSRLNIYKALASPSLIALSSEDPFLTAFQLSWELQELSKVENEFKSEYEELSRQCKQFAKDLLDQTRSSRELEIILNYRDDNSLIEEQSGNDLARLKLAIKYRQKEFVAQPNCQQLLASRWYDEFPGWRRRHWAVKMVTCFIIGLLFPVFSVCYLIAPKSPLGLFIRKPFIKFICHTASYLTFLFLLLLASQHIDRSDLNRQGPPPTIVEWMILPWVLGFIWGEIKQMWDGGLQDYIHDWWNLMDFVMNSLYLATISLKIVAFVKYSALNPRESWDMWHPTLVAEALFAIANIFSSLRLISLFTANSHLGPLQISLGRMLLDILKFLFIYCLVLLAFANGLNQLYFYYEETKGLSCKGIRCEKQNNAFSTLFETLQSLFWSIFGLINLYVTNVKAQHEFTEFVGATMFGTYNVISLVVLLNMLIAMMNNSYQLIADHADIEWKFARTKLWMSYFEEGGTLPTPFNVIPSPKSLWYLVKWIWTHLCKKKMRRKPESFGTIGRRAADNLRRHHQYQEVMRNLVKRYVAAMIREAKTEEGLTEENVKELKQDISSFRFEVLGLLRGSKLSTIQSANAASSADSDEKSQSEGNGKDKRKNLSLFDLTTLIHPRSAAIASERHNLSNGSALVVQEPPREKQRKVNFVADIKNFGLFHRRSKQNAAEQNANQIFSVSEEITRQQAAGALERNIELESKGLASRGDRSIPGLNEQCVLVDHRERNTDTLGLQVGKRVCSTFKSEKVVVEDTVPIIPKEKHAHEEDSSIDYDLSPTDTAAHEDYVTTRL
Put plainly: block of DAMGO-driven TRPC4 calcium entry – cell-based, HEK293 TRPC4/mu-opioid, Fluo-4 calcium, dose response (AID 434942).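 Note: potency of inhibitors blocking the TRPC4 calcium response.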 It is filed as functional.

For assay [19], the target named is T3, Carboxy-terminal domain RNA polymerase II polypeptide A small phosphatase 1 (Homo sapiens, UniProt Q9GZU7).
T3 sequence (Q9GZU7 whole entry): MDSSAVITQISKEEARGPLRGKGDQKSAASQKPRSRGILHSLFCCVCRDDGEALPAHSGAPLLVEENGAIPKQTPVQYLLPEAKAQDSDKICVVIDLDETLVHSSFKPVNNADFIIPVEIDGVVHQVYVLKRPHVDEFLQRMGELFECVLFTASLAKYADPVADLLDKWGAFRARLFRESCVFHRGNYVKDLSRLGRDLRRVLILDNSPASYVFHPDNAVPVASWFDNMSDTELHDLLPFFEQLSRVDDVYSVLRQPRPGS
Kind of assay: CTDSP1 inhibitors, concentration-response, biochemical, absorbance readout, ultra-high-throughput screen actives (AID 540297). It is filed as functional.

Chain of Nucleotide-binding oligomerization domain-containing protein 2 (Q9HC29 whole entry, the tested form may be a part): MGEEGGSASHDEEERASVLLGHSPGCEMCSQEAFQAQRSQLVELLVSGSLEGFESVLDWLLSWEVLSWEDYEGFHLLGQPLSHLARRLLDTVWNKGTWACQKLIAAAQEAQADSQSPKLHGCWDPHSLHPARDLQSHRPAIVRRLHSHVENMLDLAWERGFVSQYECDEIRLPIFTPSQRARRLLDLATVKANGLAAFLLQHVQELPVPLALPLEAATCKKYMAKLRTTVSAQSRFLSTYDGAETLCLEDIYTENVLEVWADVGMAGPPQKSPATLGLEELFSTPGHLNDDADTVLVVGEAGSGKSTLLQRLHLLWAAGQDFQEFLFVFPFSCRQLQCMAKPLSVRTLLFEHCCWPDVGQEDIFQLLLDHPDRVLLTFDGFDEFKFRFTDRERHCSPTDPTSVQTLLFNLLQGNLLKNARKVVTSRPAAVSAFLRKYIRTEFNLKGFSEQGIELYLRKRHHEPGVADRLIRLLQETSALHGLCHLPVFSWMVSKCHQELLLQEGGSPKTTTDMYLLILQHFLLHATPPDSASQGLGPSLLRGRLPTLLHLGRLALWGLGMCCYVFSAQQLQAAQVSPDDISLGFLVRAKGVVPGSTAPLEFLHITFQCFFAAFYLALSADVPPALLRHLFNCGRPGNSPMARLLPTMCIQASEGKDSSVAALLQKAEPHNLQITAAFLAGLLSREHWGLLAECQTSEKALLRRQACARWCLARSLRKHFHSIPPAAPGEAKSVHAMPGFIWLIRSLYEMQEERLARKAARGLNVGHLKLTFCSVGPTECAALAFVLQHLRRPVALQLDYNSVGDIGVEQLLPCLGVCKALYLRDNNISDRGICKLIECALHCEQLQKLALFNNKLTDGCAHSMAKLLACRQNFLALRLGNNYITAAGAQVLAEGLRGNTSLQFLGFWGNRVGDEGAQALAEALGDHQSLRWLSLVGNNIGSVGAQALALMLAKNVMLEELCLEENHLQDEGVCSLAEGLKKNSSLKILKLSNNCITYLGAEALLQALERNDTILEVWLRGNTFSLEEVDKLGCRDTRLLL

As for `CCCC(=O)NC(c1ccc2c(c1)OCO2)c1cc(Cl)c2cccnc2c1O` (centres undefined), the EC50 was 4.09 µM (active) in assay [1]; 47.7 µM (active) in assay [2]; 0.912 µM (active) in assay [3]; > 350 µM (not active) in assay [4]; 2.21 µM (active) in [5]; 7.69 µM (active) in assay [6]. Besides, the IC50 in assay [7] and in assay [9] was > 119 µM (inactive) each time. Also, the AC50 is 3.06 µM (active) in [8], 3.41 µM (active) in [10] and 1.03 µM (active) in assay [11].

Consider `Cc1nc(N2CCN(c3ccccn3)CC2)c2c(C)c(C(=O)N3CCN(c4ccccc4F)CC3)sc2n1`, for which the EC50 is 6.4 µM (active) in assay [12], 5.07 µM (active) in assay [15] and 1.68 µM (active) in assay [18]. In addition, the IC50 in [13] was 6.62 µM (active); in [14], > 20 µM (inactive); in assay [16], 7.16 µM (inactive); in [17], 11 µM (active).

For the compound `CCS(=O)(=O)C1=NN2C(=N)/C(=C\c3ccc(OCCOc4cccc(OC)c4)c(OC)c3)C(=O)N=C2S1`, the EC50 in [12] is > 20 µM (inactive); in assay [15] it was 3.32 µM (active). Besides, the IC50 in assay [13] is > 20 µM (inactive); in assay [14], > 20 µM (inactive); in [16], > 20 µM (inactive); in assay [17] it was > 20 µM (inactive); in assay [19] it was 4.26 µM (active).

As to `Cc1c(Cl)cccc1N=C(S)NCc1ccccc1Cl`, the IC50 in assay [7] and in assay [9] was > 119 µM (inactive) in each case.

Take `CSc1nc(N)nc2c1ncn2CC(=O)Nc1ccc(C)c(C)c1`: the IC50 in assay [7] and in assay [9] was > 118 µM (inactive) throughout.

One may read the EC50 as the midpoint of the concentration-response curve. By IC50 is commonly meant the midpoint of a concentration-inhibition curve. As a reminder, the AC50 is the concentration giving half of the maximal activity seen.
